The text below walks through data of patent publication US20250163104A1, “MACROCYCLIC IMMUNOMODULATORS” (priority 2021, published 2025).

Where a SMILES comes first, the peptide text is derived from it. Bridges are numbered along the chain shown (N, C = ends). [ ]: non-standard residue; d: D form. The star is where a group is joined. Bip = N[C@@H](Cc1ccc(-c2ccccc2)cc1)C(=O)O; Ala(cPent) = N[C@@H](CC1CCCC1)C(=O)O; Cha = N[C@@H](CC1CCCCC1)C(=O)O; Gly(cPr) = N[C@H](C(=O)O)C1CC1; Chg = N[C@H](C(=O)O)C1CCCCC1; Phg = N[C@H](C(=O)O)c1ccccc1; Carboxymethyl = O=C(O)C*; Nle = CCCC[C@H](N)C(=O)O; Orn = NCCC[C@H](N)C(=O)O; Dab = NCC[C@H](N)C(=O)O; Abu = CC[C@H](N)C(=O)O; Dap = NC[C@H](N)C(=O)O

T1 sequence (Q15116 25-288): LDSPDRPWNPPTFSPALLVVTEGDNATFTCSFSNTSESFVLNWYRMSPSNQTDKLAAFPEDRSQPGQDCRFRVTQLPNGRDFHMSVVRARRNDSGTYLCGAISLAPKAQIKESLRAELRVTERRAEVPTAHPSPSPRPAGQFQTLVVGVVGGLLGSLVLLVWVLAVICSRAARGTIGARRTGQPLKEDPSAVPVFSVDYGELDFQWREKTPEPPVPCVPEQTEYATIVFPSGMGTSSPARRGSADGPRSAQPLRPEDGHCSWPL

This experiment addresses T1, human PD-1 / PD-L1-Ig binding on Jurkat cell line over-expressing human PD-1 (Jurkat-PD-1) (Homo sapiens, UniProt Q15116).
T1 construct: expressed in transfected cells; host or cells: Jurkat
Briefly: Jurkat-PD-1 Cell Binding High-Content Screening Assay (CBA). The experiment is classed as cell-based. The settings on record: Jurkat-PD-1 cells, PE-labeled PD-L1-Ig 20 nM final; read-out: Jurkat HPD1_PDL1 IC50. In outline:
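Compounds were preincubated with Jurkat-hPD-1 cells in DMEM plus 10% fetal calf serum for 2 h at 37° C. Phycoerythrin-labeled PD-L1-Ig (20 nM final) was then added for 1 hour. Cells were fixed in 4% paraformaldehyde with Hoechst 33342, and bound fluorescence was quantified by high-content imaging.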
`CC(C)C[C@H]1NC(=O)[C@H](CCCN)NC(=O)[C@H](CCC(=O)O)NC(=O)[C@H](Cc2ccc(-c3ccccc3)cc2)NC(=O)[C@H](CC2CCCC2)NC(=O)[C@H](Cc2c[nH]c3ccccc23)NC(=O)[C@H](CC(=O)O)NC(=O)[C@H](Cc2ccc(OCC(=O)O)cc2)NC(=O)[C@H](CN)NC(=O)CSC[C@@H](C(=O)N[C@@H](C)C(N)=O)NC(=O)[C@H]([C@@H](C)O)NC(=O)[C@H](C(C)C)NC(=O)[C@H](CC2CCCCC2)NC(=O)[C@H](CCN)NC1=O` [Compound 1715] ({CH2CO}-[Dap]Y(Carboxymethyl)DW[Ala(cPent)][Bip]E[Orn][dL][Dab][Cha]VTCA-NH2; thioether N-14): the IC50 (commonly the midpoint of a concentration-inhibition curve) worked out at 38.4 nM.
As for `CC(C)C[C@H]1NC(=O)[C@H](CCCN)NC(=O)[C@H](CCC(=O)O)NC(=O)[C@H](Cc2ccc(-c3ccccc3)cc2)NC(=O)[C@H](C2CC2)NC(=O)[C@H](Cc2c[nH]c3ccccc23)NC(=O)[C@H](CC(=O)O)NC(=O)[C@H](Cc2ccc(OCC(=O)O)cc2)NC(=O)[C@H](CN)NC(=O)CSC[C@@H](C(=O)N[C@@H](C)C(N)=O)NC(=O)[C@H]([C@@H](C)O)NC(=O)[C@H](C(C)C)NC(=O)[C@H](CC2CCCCC2)NC(=O)[C@H](CCN)NC1=O` [Compound 1716] ({CH2CO}-[Dap]Y(Carboxymethyl)DW[Gly(cPr)][Bip]E[Orn][dL][Dab][Cha]VTCA-NH2; thioether N-14), the figure is 24.9 nM; as for `CC[C@H](C)[C@@H]1NC(=O)[C@H](Cc2c[nH]c3ccccc23)NC(=O)[C@H](CC(=O)O)NC(=O)[C@H](Cc2ccc(OCC(=O)O)cc2)NC(=O)[C@H](CN)NC(=O)CSC[C@@H](C(=O)N[C@@H](C)C(N)=O)NC(=O)[C@H]([C@@H](C)O)NC(=O)[C@H](C(C)C)NC(=O)[C@H](CC2CCCCC2)NC(=O)[C@H](CCN)NC(=O)[C@@H](CC(C)C)NC(=O)[C@H](CCCN)NC(=O)[C@H](CCC(=O)O)NC(=O)[C@H](Cc2ccc(-c3ccccc3)cc2)NC1=O` [Compound 1717] ({CH2CO}-[Dap]Y(Carboxymethyl)DWI[Bip]E[Orn][dL][Dab][Cha]VTCA-NH2; thioether N-14), 27.7 nM; as for `CCCC[C@@H]1NC(=O)[C@H](Cc2c[nH]c3ccccc23)NC(=O)[C@H](CC(=O)O)NC(=O)[C@H](Cc2ccc(OCC(=O)O)cc2)NC(=O)[C@H](CN)NC(=O)CSC[C@@H](C(=O)N[C@@H](C)C(N)=O)NC(=O)[C@H]([C@@H](C)O)NC(=O)[C@H](C(C)C)NC(=O)[C@H](CC2CCCCC2)NC(=O)[C@H](CCN)NC(=O)[C@@H](CC(C)C)NC(=O)[C@H](CCCN)NC(=O)[C@H](CCC(=O)O)NC(=O)[C@H](Cc2ccc(-c3ccccc3)cc2)NC1=O` [Compound 1718] ({CH2CO}-[Dap]Y(Carboxymethyl)DW[Nle][Bip]E[Orn][dL][Dab][Cha]VTCA-NH2; thioether N-14), 24.2 nM.
Regarding `CCC[C@@H]1NC(=O)[C@H](Cc2c[nH]c3ccccc23)NC(=O)[C@H](CC(=O)O)NC(=O)[C@H](Cc2ccc(OCC(=O)O)cc2)NC(=O)[C@H](CN)NC(=O)CSC[C@@H](C(=O)N[C@@H](C)C(N)=O)NC(=O)[C@H]([C@@H](C)O)NC(=O)[C@H](C(C)C)NC(=O)[C@H](CC2CCCCC2)NC(=O)[C@H](CCN)NC(=O)[C@@H](CC(C)C)NC(=O)[C@H](CCCN)NC(=O)[C@H](CCC(=O)O)NC(=O)[C@H](Cc2ccc(-c3ccccc3)cc2)NC1=O` [Compound 1719], the IC50 is 21 nM.
For the compound `CC(C)C[C@H]1NC(=O)[C@H](CCCN)NC(=O)[C@H](CCC(=O)O)NC(=O)[C@H](Cc2ccc(-c3ccccc3)cc2)NC(=O)[C@H](c2ccccc2)NC(=O)[C@H](Cc2c[nH]c3ccccc23)NC(=O)[C@H](CC(=O)O)NC(=O)[C@H](Cc2ccc(OCC(=O)O)cc2)NC(=O)[C@H](CN)NC(=O)CSC[C@@H](C(=O)N[C@@H](C)C(N)=O)NC(=O)[C@H]([C@@H](C)O)NC(=O)[C@H](C(C)C)NC(=O)[C@H](CC2CCCCC2)NC(=O)[C@H](CCN)NC1=O` [Compound 1720] ({CH2CO}-[Dap]Y(Carboxymethyl)DW[Phg][Bip]E[Orn][dL][Dab][Cha]VTCA-NH2; thioether N-14), the IC50 amounted to 24 nM.
As for `CC[C@@H]1NC(=O)[C@H](Cc2c[nH]c3ccccc23)NC(=O)[C@H](CC(=O)O)NC(=O)[C@H](Cc2ccc(OCC(=O)O)cc2)NC(=O)[C@H](CN)NC(=O)CSC[C@@H](C(=O)N[C@@H](C)C(N)=O)NC(=O)[C@H]([C@@H](C)O)NC(=O)[C@H](C(C)C)NC(=O)[C@H](CC2CCCCC2)NC(=O)[C@H](CCN)NC(=O)[C@@H](CC(C)C)NC(=O)[C@H](CCCN)NC(=O)[C@H]([C@@H](C)CC)NC(=O)[C@H](Cc2ccc(-c3ccccc3)cc2)NC1=O` [Compound 1721] ({CH2CO}-[Dap]Y(Carboxymethyl)DW[Abu][Bip]I[Orn][dL][Dab][Cha]VTCA-NH2; thioether N-14), the IC50 is 11.3 nM.
For the compound `CC[C@H](C)[C@@H]1NC(=O)[C@H](Cc2ccc(-c3ccccc3)cc2)NC(=O)[C@H](C2CCCCC2)NC(=O)[C@H](Cc2c[nH]c3ccccc23)NC(=O)[C@H](CC(=O)O)NC(=O)[C@H](Cc2ccc(OCC(=O)O)cc2)NC(=O)[C@H](CN)NC(=O)CSC[C@@H](C(=O)N[C@@H](C)C(N)=O)NC(=O)[C@H]([C@@H](C)O)NC(=O)[C@H](C(C)C)NC(=O)[C@H](CC2CCCCC2)NC(=O)[C@H](CCN)NC(=O)[C@@H](CC(C)C)NC(=O)[C@H](CCCN)NC1=O` [Compound 1722] ({CH2CO}-[Dap]Y(Carboxymethyl)DW[Chg][Bip]I[Orn][dL][Dab][Cha]VTCA-NH2; thioether N-14), the IC50 is 27.5 nM.
Take `CC[C@H](C)[C@@H]1NC(=O)[C@H](Cc2ccc(-c3ccccc3)cc2)NC(=O)[C@H](CC2CCCC2)NC(=O)[C@H](Cc2c[nH]c3ccccc23)NC(=O)[C@H](CC(=O)O)NC(=O)[C@H](Cc2ccc(OCC(=O)O)cc2)NC(=O)[C@H](CN)NC(=O)CSC[C@@H](C(=O)N[C@@H](C)C(N)=O)NC(=O)[C@H]([C@@H](C)O)NC(=O)[C@H](C(C)C)NC(=O)[C@H](CC2CCCCC2)NC(=O)[C@H](CCN)NC(=O)[C@@H](CC(C)C)NC(=O)[C@H](CCCN)NC1=O` [Compound 1723] ({CH2CO}-[Dap]Y(Carboxymethyl)DW[Ala(cPent)][Bip]I[Orn][dL][Dab][Cha]VTCA-NH2; thioether N-14): the IC50 came out at 20.8 nM.
Turning to `CC[C@H](C)[C@@H]1NC(=O)[C@H](Cc2ccc(-c3ccccc3)cc2)NC(=O)[C@H](C2CC2)NC(=O)[C@H](Cc2c[nH]c3ccccc23)NC(=O)[C@H](CC(=O)O)NC(=O)[C@H](Cc2ccc(OCC(=O)O)cc2)NC(=O)[C@H](CN)NC(=O)CSC[C@@H](C(=O)N[C@@H](C)C(N)=O)NC(=O)[C@H]([C@@H](C)O)NC(=O)[C@H](C(C)C)NC(=O)[C@H](CC2CCCCC2)NC(=O)[C@H](CCN)NC(=O)[C@@H](CC(C)C)NC(=O)[C@H](CCCN)NC1=O` [Compound 1724] ({CH2CO}-[Dap]Y(Carboxymethyl)DW[Gly(cPr)][Bip]I[Orn][dL][Dab][Cha]VTCA-NH2; thioether N-14), the IC50 came out at 17.7 nM.
For the compound `CC[C@H](C)[C@@H]1NC(=O)[C@H](Cc2c[nH]c3ccccc23)NC(=O)[C@H](CC(=O)O)NC(=O)[C@H](Cc2ccc(OCC(=O)O)cc2)NC(=O)[C@H](CN)NC(=O)CSC[C@@H](C(=O)N[C@@H](C)C(N)=O)NC(=O)[C@H]([C@@H](C)O)NC(=O)[C@H](C(C)C)NC(=O)[C@H](CC2CCCCC2)NC(=O)[C@H](CCN)NC(=O)[C@@H](CC(C)C)NC(=O)[C@H](CCCN)NC(=O)[C@H]([C@@H](C)CC)NC(=O)[C@H](Cc2ccc(-c3ccccc3)cc2)NC1=O` [Compound 1725] ({CH2CO}-[Dap]Y(Carboxymethyl)DWI[Bip]I[Orn][dL][Dab][Cha]VTCA-NH2; thioether N-14), the IC50 was 24.7 nM.
`CCCC[C@@H]1NC(=O)[C@H](Cc2c[nH]c3ccccc23)NC(=O)[C@H](CC(=O)O)NC(=O)[C@H](Cc2ccc(OCC(=O)O)cc2)NC(=O)[C@H](CN)NC(=O)CSC[C@@H](C(=O)N[C@@H](C)C(N)=O)NC(=O)[C@H]([C@@H](C)O)NC(=O)[C@H](C(C)C)NC(=O)[C@H](CC2CCCCC2)NC(=O)[C@H](CCN)NC(=O)[C@@H](CC(C)C)NC(=O)[C@H](CCCN)NC(=O)[C@H]([C@@H](C)CC)NC(=O)[C@H](Cc2ccc(-c3ccccc3)cc2)NC1=O` [Compound 1726] ({CH2CO}-[Dap]Y(Carboxymethyl)DW[Nle][Bip]I[Orn][dL][Dab][Cha]VTCA-NH2; thioether N-14): the IC50 is 13.1 nM.
On to `CCC[C@@H]1NC(=O)[C@H](Cc2c[nH]c3ccccc23)NC(=O)[C@H](CC(=O)O)NC(=O)[C@H](Cc2ccc(OCC(=O)O)cc2)NC(=O)[C@H](CN)NC(=O)CSC[C@@H](C(=O)N[C@@H](C)C(N)=O)NC(=O)[C@H]([C@@H](C)O)NC(=O)[C@H](C(C)C)NC(=O)[C@H](CC2CCCCC2)NC(=O)[C@H](CCN)NC(=O)[C@@H](CC(C)C)NC(=O)[C@H](CCCN)NC(=O)[C@H]([C@@H](C)CC)NC(=O)[C@H](Cc2ccc(-c3ccccc3)cc2)NC1=O` [Compound 1727], for which the half-inhibitory concentration (IC50) was 9.1 nM.
As for `CC[C@H](C)[C@@H]1NC(=O)[C@H](Cc2ccc(-c3ccccc3)cc2)NC(=O)[C@H](c2ccccc2)NC(=O)[C@H](Cc2c[nH]c3ccccc23)NC(=O)[C@H](CC(=O)O)NC(=O)[C@H](Cc2ccc(OCC(=O)O)cc2)NC(=O)[C@H](CN)NC(=O)CSC[C@@H](C(=O)N[C@@H](C)C(N)=O)NC(=O)[C@H]([C@@H](C)O)NC(=O)[C@H](C(C)C)NC(=O)[C@H](CC2CCCCC2)NC(=O)[C@H](CCN)NC(=O)[C@@H](CC(C)C)NC(=O)[C@H](CCCN)NC1=O` [Compound 1728] ({CH2CO}-[Dap]Y(Carboxymethyl)DW[Phg][Bip]I[Orn][dL][Dab][Cha]VTCA-NH2; thioether N-14), the figure is 29.2 nM.
